Columns and labels:
[1] = molecular target: T1, human adenosine A1 receptor (Homo sapiens, UniProt P30542); assay: Two‐state competition association assay with [^3H]‐NECA; type: binding
T1 sequence (P30542 1-326): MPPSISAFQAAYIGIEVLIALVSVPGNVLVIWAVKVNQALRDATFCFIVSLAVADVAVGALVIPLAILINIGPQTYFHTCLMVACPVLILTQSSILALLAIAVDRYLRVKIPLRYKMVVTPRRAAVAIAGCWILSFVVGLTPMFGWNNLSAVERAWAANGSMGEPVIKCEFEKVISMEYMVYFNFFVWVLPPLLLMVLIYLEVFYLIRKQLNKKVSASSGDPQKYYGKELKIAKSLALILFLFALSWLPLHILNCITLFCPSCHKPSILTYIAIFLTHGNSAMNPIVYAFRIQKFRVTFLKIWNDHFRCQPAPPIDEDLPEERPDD

A1 receptor = settings: 25°C; ref Guo et al., 2013; cited from earlier work
[2] = molecular target: T1, human adenosine A1 receptor; assay: Competition binding assay: displacement of [^3H]‐NECA on CHOhA1R cell membranes

| SMILES | k6 (dissociation rate constant of competitor at R1 state) ([1]; two‐state model, 30°C, mean ± SEM of five experiments) | association rate (A1 receptor) | IC50 [2] | Kb ([1]; KB,2, KB,2 = k8/k7, R2 state, 30°C, DPCPX and LUF5962 values ambiguous) | kon ([1]; read-out: k5 (association rate constant of competitor at R1 state)) | koff ([1]; read-out: k6 (dissociation rate constant of competitor at R1 state)) |
| --- | --- | --- | --- | --- | --- | --- |
| CCCn1c(=O)c2[nH]c(C3CCCC3)nc2n(CCC)c1=O [DPCPX, 1,3‐dipropyl‐8‐cyclopentylxanthine] | 0.78 ± 1.42 min⁻¹ | 3.33e+06 M⁻¹ s⁻¹ | – | – | – | – |
| c1ccc(-c2nc(-c3ccccc3)c3nc(C4CCCC4)[nH]c3n2)cc1 [LUF5962, 8‐cyclopentyl‐2,6‐diphenyl‐9H‐purine] | – | 2e+06 M⁻¹ s⁻¹ | 74.1 nM | 15 nM | 167000 M⁻¹ s⁻¹ | 0.00383 s⁻¹ |

Reference: PMC5913406 (British Journal of Pharmacology, 2018)
